Measurements published in ChEMBL document CHEMBL5727488, “3-indol substituted derivatives, pharmaceutical compositions and methods for use” (2020).
pIC50: −log10 of the molar value.

Target: Tryptophan 2,3-dioxygenase (Homo sapiens, UniProt P48775)
Experiment: Assay for TDO2 enzymatic activity determination: To measure the TDO2 activity, the procedure described in Dolusic et al. J. Med. Chem.; 2011, 54, […] was adapted: the reaction mixture contained (final concentrations) potassium phosphate buffer (50 mM, pH 7.5), ascorbic acid (0.25 M), methylene blue (0.125 μM), catalase (40 units/mL, from bovine liver, Sigma), and human recombinant TDO2 enzyme (prepared as described in Dolusic et al. J. Med. Chem.; 2011, 54, 5320-5334; 0.9 μg) without or with the compounds of the present invention at the indicated concentrations (total volume 112.5 μL). The reaction was initiated by the addition of 37.5 μL of L-Trp (final concentration 1 mM) at room temperature. The reaction was conducted at room temperature during one hour and stopped by the addition of 30 μL of 30% (w/v) trichloroacetic acid.To convert N-formylkynurenine into kynurenine, the reaction mixture was incubated at 65° C. for 30 min. Then 150 μL of the reaction mixture was mixed with 120 μL of 2.5% (w/v) 4-(dimethylamino)-benzaldehyde in acetic acid and incubated for 5 min at room temperature. Kynurenine concentrations were determined by measuring the absorbance at 480 nm. A standard curve was made with pure kynurenine. The TDO activity was measured as described above using ten serial concentrations of the compounds of the present invention. […]

Chain of Tryptophan 2,3-dioxygenase (P48775 whole entry): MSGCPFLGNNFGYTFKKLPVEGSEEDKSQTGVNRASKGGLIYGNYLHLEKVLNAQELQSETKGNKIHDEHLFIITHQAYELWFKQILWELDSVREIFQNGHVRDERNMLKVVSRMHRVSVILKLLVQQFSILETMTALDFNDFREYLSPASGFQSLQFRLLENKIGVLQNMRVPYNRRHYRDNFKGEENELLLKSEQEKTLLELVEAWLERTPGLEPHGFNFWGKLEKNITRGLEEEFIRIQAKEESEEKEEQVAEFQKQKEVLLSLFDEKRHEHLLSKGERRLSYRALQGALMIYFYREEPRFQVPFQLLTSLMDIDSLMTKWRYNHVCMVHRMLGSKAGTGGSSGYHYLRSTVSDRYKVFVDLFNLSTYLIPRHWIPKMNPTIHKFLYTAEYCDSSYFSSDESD

pIC50: 6.08
SMILES: C[C@@H](CO)NS(=O)(=O)c1ccc(-c2c[nH]c3cc(F)ccc23)cc1
